# Source: PubChem BioAssay AID1963966 (Molecular Pharmacology Branch, DTP, NCI, 2024)
# System: 935938-334-R-J1-PDC spheroids with HUVEC/MSC, viability
# Test: Anticancer human tumor 935938-334-R-J1-PDC patient-derived small intestine adenocarcinoma cell line growth inhibition [PI3K]
# Conditions: for IC50: curve of first compound; for viability, T/C: stronger effect = lower value
# How it was run: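 Complex 3D spheroids (cancer cells + endothelial HUVEC + mesenchymal stem cells); drug pairs of targeted agent x inavolisib/alpelisib/duvelisib/copanlisib; half-log series from ~Cmax, max 10 microM if Cmax unknown; endpoint viability.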
# [1] = second compound 0.0316 µM, first compound 0.0316 µM
# [2] = second compound 0.0316 µM, first compound 0.1 µM
# [3] = second compound 0.0316 µM, first compound 0.316 µM
# [4] = second compound 0.0316 µM, first compound 1 µM
# [5] = second compound 0.0316 µM, first compound 3.16 µM
# [6] = second compound 0.0316 µM, first compound 10 µM
# [7] = second compound 0.1 µM, first compound 0.0316 µM
# [8] = second compound 0.1 µM, first compound 0.1 µM
# [9] = second compound 0.1 µM, first compound 0.316 µM
# [10] = second compound 0.1 µM, first compound 1 µM
# [11] = second compound 0.1 µM, first compound 3.16 µM
# [12] = second compound 0.1 µM, first compound 10 µM
# [13] = second compound 0.316 µM, first compound 0.0316 µM
# [14] = second compound 0.316 µM, first compound 0.1 µM
# [15] = second compound 0.316 µM, first compound 0.316 µM
# [16] = second compound 0.316 µM, first compound 1 µM
# [17] = second compound 0.316 µM, first compound 3.16 µM
# [18] = second compound 0.316 µM, first compound 10 µM
# [19] = second compound 1 µM, first compound 0.0316 µM
# [20] = second compound 1 µM, first compound 0.1 µM
# [21] = second compound 1 µM, first compound 0.316 µM
# [22] = second compound 1 µM, first compound 1 µM
# [23] = second compound 1 µM, first compound 3.16 µM
# [24] = second compound 1 µM, first compound 10 µM
# [25] = second compound 3.16 µM, first compound 0.0316 µM
# [26] = second compound 3.16 µM, first compound 0.1 µM
# [27] = second compound 3.16 µM, first compound 0.316 µM
# [28] = second compound 3.16 µM, first compound 1 µM
# [29] = second compound 3.16 µM, first compound 3.16 µM
# [30] = second compound 3.16 µM, first compound 10 µM
# [31] = second compound 10 µM, first compound 0.0316 µM
# [32] = second compound 10 µM, first compound 0.1 µM
# [33] = second compound 10 µM, first compound 0.316 µM
# [34] = second compound 10 µM, first compound 1 µM
# [35] = second compound 10 µM, first compound 3.16 µM
# [36] = second compound 10 µM, first compound 10 µM
# 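Note: compound exposure lasted seven days before viability was read.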
# 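Throughout, for viability, T/C: percent of vehicle DMSO treated spheroid viability so 100% = untreated.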
compound,measurement,setting,value
C[C@@H](NC(=O)c1ncnc(N)c1Cl)c1ncc(C(=O)Nc2cc(C(F)(F)F)c(Cl)cn2)s1 + Cc1nc(NC(=O)N2CCCC2C(N)=O)sc1-c1ccnc(C(C)(C)C(F)(F)F)c1,IC50,second compound 0.0316 µM,> 10000 nM
same,IC50,second compound 0.1 µM,> 10000 nM
same,IC50,second compound 0.316 µM,> 10000 nM
same,IC50,second compound 1 µM,> 10000 nM
same,IC50,second compound 3.16 µM,6670 nM
same,IC50,second compound 10 µM,272 nM
same,"viability, T/C",[1],112%
same,"viability, T/C",[2],100%
same,"viability, T/C",[3],98.7%
same,"viability, T/C",[4],88.1%
same,"viability, T/C",[5],90.7%
same,"viability, T/C",[6],81.6%
same,"viability, T/C",[7],94.1%
same,"viability, T/C",[8],108%
same,"viability, T/C",[9],101%
same,"viability, T/C",[10],115%
same,"viability, T/C",[11],95.5%
same,"viability, T/C",[12],68.6%
same,"viability, T/C",[13],104%
same,"viability, T/C",[14],108%
same,"viability, T/C",[15],109%
same,"viability, T/C",[16],87.8%
same,"viability, T/C",[17],89.8%
same,"viability, T/C",[18],78%
same,"viability, T/C",[19],105%
same,"viability, T/C",[20],80.4%
same,"viability, T/C",[21],87.4%
same,"viability, T/C",[22],89.5%
same,"viability, T/C",[23],79.9%
same,"viability, T/C",[24],68.2%
same,"viability, T/C",[25],53.6%
same,"viability, T/C",[26],55.6%
same,"viability, T/C",[27],79.6%
same,"viability, T/C",[28],62%
same,"viability, T/C",[29],61.9%
same,"viability, T/C",[30],31.2%
same,"viability, T/C",[31],50.6%
same,"viability, T/C",[32],63.9%
same,"viability, T/C",[33],41.4%
same,"viability, T/C",[34],44.5%
same,"viability, T/C",[35],37.2%
same,"viability, T/C",[36],22.8%
CC(Cn1ccc(-c2ccc(C#N)c(Cl)c2)n1)NC(=O)c1cc(C(C)O)[nH]n1 (stereo not drawn) + COc1c(OCCCN2CCOCC2)ccc2c3n(c(=NC(=O)c4cnc(N)nc4)nc12)CCN3,IC50,second compound 0.00316 µM,> 10000 nM
same,IC50,second compound 0.01 µM,> 10000 nM
same,IC50,second compound 0.0316 µM,> 10000 nM
same,IC50,second compound 0.1 µM,1020 nM
same,IC50,second compound 0.316 µM,< 31.6 nM
same,IC50,second compound 1 µM,< 31.6 nM
same,"viability, T/C","second compound 0.00316 µM, first compound 0.0316 µM",98%
same,"viability, T/C","second compound 0.00316 µM, first compound 0.1 µM",87.8%
same,"viability, T/C","second compound 0.00316 µM, first compound 0.316 µM",84.1%
same,"viability, T/C","second compound 0.00316 µM, first compound 1 µM",89.2%
same,"viability, T/C","second compound 0.00316 µM, first compound 3.16 µM",121%
same,"viability, T/C","second compound 0.00316 µM, first compound 10 µM",107%
same,"viability, T/C","second compound 0.01 µM, first compound 0.0316 µM",97.6%
same,"viability, T/C","second compound 0.01 µM, first compound 0.1 µM",95.2%
same,"viability, T/C","second compound 0.01 µM, first compound 0.316 µM",88.1%
same,"viability, T/C","second compound 0.01 µM, first compound 1 µM",77.2%
same,"viability, T/C","second compound 0.01 µM, first compound 3.16 µM",99.4%
same,"viability, T/C","second compound 0.01 µM, first compound 10 µM",78.7%
same,"viability, T/C",[1],75.8%
same,"viability, T/C",[2],61.2%
same,"viability, T/C",[3],88.5%
same,"viability, T/C",[4],79%
same,"viability, T/C",[5],89.1%
same,"viability, T/C",[6],67.1%
same,"viability, T/C",[7],40.6%
same,"viability, T/C",[8],57.2%
same,"viability, T/C",[9],54.6%
same,"viability, T/C",[10],49.9%
same,"viability, T/C",[11],41.2%
same,"viability, T/C",[12],33%
same,"viability, T/C",[13],36.6%
same,"viability, T/C",[14],35.6%
same,"viability, T/C",[15],29.5%
same,"viability, T/C",[16],36%
same,"viability, T/C",[17],33.9%
same,"viability, T/C",[18],30.8%
same,"viability, T/C",[19],35.8%
same,"viability, T/C",[20],39%
same,"viability, T/C",[21],43.6%
same,"viability, T/C",[22],39.9%
same,"viability, T/C",[23],31.4%
same,"viability, T/C",[24],28.9%
Cn1cnc2c(F)c(Nc3ccc(Br)cc3Cl)c(C(=O)NOCCO)cc21 + CC(Nc1ccc2c(c1)OCCn1cc(N3C(=O)OCC3C(F)F)nc1-2)C(N)=O,IC50,second compound 0.00316 µM,49.6 nM
same,IC50,second compound 0.01 µM,29.9 nM
same,IC50,second compound 0.0316 µM,65.4 nM
same,IC50,second compound 0.1 µM,27.4 nM
same,IC50,second compound 0.316 µM,18.3 nM
same,IC50,second compound 1 µM,< 9.49 nM
same,"viability, T/C","second compound 0.00316 µM, first compound 0.00949 µM",86.3%
same,"viability, T/C","second compound 0.00316 µM, first compound 0.03 µM",57.2%
same,"viability, T/C","second compound 0.00316 µM, first compound 0.0949 µM",39.2%
same,"viability, T/C","second compound 0.00316 µM, first compound 0.3 µM",30.1%
same,"viability, T/C","second compound 0.00316 µM, first compound 0.949 µM",20.9%
same,"viability, T/C","second compound 0.00316 µM, first compound 3 µM",16.8%
same,"viability, T/C","second compound 0.01 µM, first compound 0.00949 µM",71.2%
same,"viability, T/C","second compound 0.01 µM, first compound 0.03 µM",50.9%
same,"viability, T/C","second compound 0.01 µM, first compound 0.0949 µM",33.8%
same,"viability, T/C","second compound 0.01 µM, first compound 0.3 µM",26.5%
same,"viability, T/C","second compound 0.01 µM, first compound 0.949 µM",26.5%
same,"viability, T/C","second compound 0.01 µM, first compound 3 µM",17.9%
same,"viability, T/C","second compound 0.0316 µM, first compound 0.00949 µM",79.1%
same,"viability, T/C","second compound 0.0316 µM, first compound 0.03 µM",65.3%
same,"viability, T/C","second compound 0.0316 µM, first compound 0.0949 µM",38.8%
same,"viability, T/C","second compound 0.0316 µM, first compound 0.3 µM",34.3%
same,"viability, T/C","second compound 0.0316 µM, first compound 0.949 µM",23.8%
same,"viability, T/C","second compound 0.0316 µM, first compound 3 µM",15.8%
same,"viability, T/C","second compound 0.1 µM, first compound 0.00949 µM",58%
same,"viability, T/C","second compound 0.1 µM, first compound 0.03 µM",46.4%
same,"viability, T/C","second compound 0.1 µM, first compound 0.0949 µM",39.7%
same,"viability, T/C","second compound 0.1 µM, first compound 0.3 µM",23.1%
same,"viability, T/C","second compound 0.1 µM, first compound 0.949 µM",16.8%
same,"viability, T/C","second compound 0.1 µM, first compound 3 µM",18.3%
same,"viability, T/C","second compound 0.316 µM, first compound 0.00949 µM",56.4%
same,"viability, T/C","second compound 0.316 µM, first compound 0.03 µM",45.3%
same,"viability, T/C","second compound 0.316 µM, first compound 0.0949 µM",22.7%
same,"viability, T/C","second compound 0.316 µM, first compound 0.3 µM",19%
same,"viability, T/C","second compound 0.316 µM, first compound 0.949 µM",16.8%
same,"viability, T/C","second compound 0.316 µM, first compound 3 µM",12.7%
same,"viability, T/C","second compound 1 µM, first compound 0.00949 µM",44.3%
same,"viability, T/C","second compound 1 µM, first compound 0.03 µM",31.3%
same,"viability, T/C","second compound 1 µM, first compound 0.0949 µM",20.7%
same,"viability, T/C","second compound 1 µM, first compound 0.3 µM",17.4%
same,"viability, T/C","second compound 1 µM, first compound 0.949 µM",17.4%
same,"viability, T/C","second compound 1 µM, first compound 3 µM",12%
Cn1ncc(Cl)c1-c1cc(C(=O)NC(CN)Cc2cccc(F)c2)sc1Cl (stereo not drawn) + CC(Nc1ncnc2nc[nH]c12)c1cc2cccc(Cl)c2c(=O)n1-c1ccccc1,IC50,second compound 0.0316 µM,> 10000 nM
same,IC50,second compound 0.1 µM,> 10000 nM
same,IC50,second compound 0.316 µM,3110 nM
same,IC50,second compound 1 µM,2710 nM
same,IC50,second compound 3.16 µM,1760 nM
same,IC50,second compound 10 µM,271 nM
same,"viability, T/C",[1],73%
same,"viability, T/C",[2],91.4%
same,"viability, T/C",[3],65.3%
same,"viability, T/C",[4],65.4%
same,"viability, T/C",[5],54.6%
same,"viability, T/C",[6],51.3%
same,"viability, T/C",[7],92.6%
same,"viability, T/C",[8],88.9%
same,"viability, T/C",[9],88.1%
same,"viability, T/C",[10],63.2%
same,"viability, T/C",[11],56.8%
same,"viability, T/C",[12],58.1%
same,"viability, T/C",[13],104%
same,"viability, T/C",[14],128%
same,"viability, T/C",[15],75%
same,"viability, T/C",[16],78.4%
same,"viability, T/C",[17],49.3%
same,"viability, T/C",[18],34%
same,"viability, T/C",[19],73.5%
same,"viability, T/C",[20],97.8%
same,"viability, T/C",[21],73.1%
same,"viability, T/C",[22],61.6%
same,"viability, T/C",[23],51.3%
same,"viability, T/C",[24],36.3%
same,"viability, T/C",[25],72.2%
same,"viability, T/C",[26],74.1%
same,"viability, T/C",[27],61.5%
same,"viability, T/C",[28],47.9%
same,"viability, T/C",[29],52.5%
same,"viability, T/C",[30],33.2%
same,"viability, T/C",[31],73.2%
same,"viability, T/C",[32],83.9%
same,"viability, T/C",[33],45.5%
same,"viability, T/C",[34],52.7%
same,"viability, T/C",[35],39.4%
same,"viability, T/C",[36],34.5%
